Calls of active or inactive are those of the source. No cut-off for these calls is given here.
Columns and labels:
Cholinesterase [1] = biological target: T1, Cholinesterase (Homo sapiens, UniProt P06276); assay: Binding affinity to BChE (unknown origin) in PBS assessed as Michaelis-menten constant by fluorometric method
PC-12 [2] = assay: Binding affinity to BChE in rat PC-12 cells assessed as increase in fluorescence intensity incubated for 1 hrs by fluorescence based confocal laser scanning microscopic analysis; type: cell-based; details: dose 1-10 µM
Cholinesterase [3] = biological target: T1, Cholinesterase; assay: Binding affinity to BChE (unknown origin) in PBS assessed as fold change in fluorescence intensity at 710 nm by fluorescence spectra analysis
Cholinesterase [4] = biological target: T1, Cholinesterase; assay: Binding affinity to BChE (unknown origin) in PBS assessed as maximum initial reaction rate by fluorometric method
SH-SY5Y [5] = assay: Neuroprotective activity against amyloid-beta (1 to 42)-induced cell death in human SH-SY5Y cells assessed as increase in cell survival at 10 to 50 uM preincubated with compound for 2 hrs followed by amyloid beta (1 to 42) addition and measured after 24 hrs by MTT assay; type: functional, cell-based; details: dose 10-50 µM, time 26.0 hrs
[6] = Stability of compound in male ICR mouse plasma at 100 uM, iv measured after 30 mins by fluorescence microplate reader; type: ADME, organism-based; details: 0.5 h
[7] = Drug accumulation in brain of APP/PS1 transgenic AD-mouse model at 100 uM, iv measured at 5 to 60 mins by fluorescence imaging analysis; type: ADME, organism-based; details: in vivo, time 5-60 min
Cholinesterase [8] = biological target: T1, Cholinesterase; assay: Binding affinity to BChE (unknown origin) assessed as enzyme mediated compound hydrolysis measured after 5 min by HPLC analysis relative to control; set-up: scale not given: the % may be the effect or the level left
[9] = Stability of compound in male ICR mouse brain at 100 uM, iv measured after 30 to 1440 mins by fluorescence microplate reader; type: ADME, organism-based; details: time 30-1440 min
PC-12 [10] = assay: Binding affinity to BChE in rat PC-12 cells at 10 uM incubated for 1 hrs by fluorescence based confocal laser scanning microscopic analysis; type: cell-based
Cholinesterase [11] = biological target: T1, Cholinesterase; assay: Inhibition of human BChE using butyrylthiocholineiodide as substrate preincubated for 5 mins followed by substrate addition and measured immediately by Ellmans method
Cholinesterase [12] = biological target: T1, Cholinesterase; assay: Binding affinity to BChE in human LN-229 cells at 10 uM incubated for 1 hrs by fluorescence based confocal laser scanning microscopic analysis; type: cell-based
[13] = Selectivity ratio of fluorescence intensity for binding affinity to AChE (unknown origin) in PBS to fluorescence intensity for binding affinity to BChE (unknown origin) in PBS
Cholinesterase [14] = biological target: T1, Cholinesterase; assay: Binding affinity to BChE (unknown origin) in PBS assessed as […] at 680 nm by UV/vis absorption analysis
Cholinesterase [15] = biological target: T1, Cholinesterase; assay: Binding affinity to BChE (unknown origin) in PBS assessed as red-shift in maximum absorption to 680 nm by UV/vis absorption analysis
Homo sapiens [16] = organism: Homo sapiens; assay: Binding affinity to lysozyme (unknown origin) by fluorescence analysis
SH-SY5Y [17] = assay: Neuroprotective activity against amyloid-beta (1 to 42)-induced human SH-SY5Y cells assessed as increase in ACh level in culture medium at 10 to 20 uM incubated for 24 hrs by ELISA; type: functional, cell-based; details: dose 10-20 µM
Cholinesterase [18] = biological target: T1, Cholinesterase; assay: Binding affinity to BChE in human SH-SY5Y cells at 10 uM incubated for 1 hrs by fluorescence based confocal laser scanning microscopic analysis; type: cell-based
Homo sapiens [19] = organism: Homo sapiens; assay: Binding affinity to carboxylesterase (unknown origin) by fluorescence analysis
Mus musculus [20] = assay: Antialzheimer activity in APP/PS1 transgenic AD mouse model assessed as decrease in amyloid beta (1 to 42) level administered intravenously once every 2 days for 10 times and measured on day 30 by ELISA; type: functional, organism-based; details: route iv, time 30.0 day
[21] = Toxicity in APP/PS1 transgenic AD mouse model assessed as effect on body weight administered intravenously once every 2 days for 10 times and measured on day 30; details: in vivo, iv, 720 h, time 30 day
[22] = Neurotoxicity in mouse HT-22 cells assessed as reduction in cell viability at 50 uM; type: toxicity, cell-based; details: ht-22, 50 µM
Mus musculus [23] = assay: Antialzheimer activity in APP/PS1 transgenic AD mouse model assessed as improvement in memory administered intravenously once every 2 days for 10 times followed by morris water maze training from day 21 to 25 and measured on day 26 by Morris water maze test; type: functional, organism-based; details: route iv, time 26.0 day
[24] = Stability of compound in male ICR mouse brain at 100 uM, iv measured within 5 mins by fluorescence microplate reader; type: ADME, organism-based
Mus musculus [25] = assay: Antialzheimer activity in APP/PS1 transgenic AD mouse model assessed as improvement in learning administered intravenously once every 2 days for 10 times and measured on day 26 by Y maze test; type: functional, organism-based; details: route iv, time 26.0 day
[26] = biological target: Cholinesterase (Mus musculus) (UniProt Q03311); assay: Binding affinity to BChE in mouse HT-22 cells at 10 uM incubated for 1 hrs by fluorescence based confocal laser scanning microscopic analysis; type: cell-based
Chain of Cholinesterase (Mus musculus) (Q03311 whole entry): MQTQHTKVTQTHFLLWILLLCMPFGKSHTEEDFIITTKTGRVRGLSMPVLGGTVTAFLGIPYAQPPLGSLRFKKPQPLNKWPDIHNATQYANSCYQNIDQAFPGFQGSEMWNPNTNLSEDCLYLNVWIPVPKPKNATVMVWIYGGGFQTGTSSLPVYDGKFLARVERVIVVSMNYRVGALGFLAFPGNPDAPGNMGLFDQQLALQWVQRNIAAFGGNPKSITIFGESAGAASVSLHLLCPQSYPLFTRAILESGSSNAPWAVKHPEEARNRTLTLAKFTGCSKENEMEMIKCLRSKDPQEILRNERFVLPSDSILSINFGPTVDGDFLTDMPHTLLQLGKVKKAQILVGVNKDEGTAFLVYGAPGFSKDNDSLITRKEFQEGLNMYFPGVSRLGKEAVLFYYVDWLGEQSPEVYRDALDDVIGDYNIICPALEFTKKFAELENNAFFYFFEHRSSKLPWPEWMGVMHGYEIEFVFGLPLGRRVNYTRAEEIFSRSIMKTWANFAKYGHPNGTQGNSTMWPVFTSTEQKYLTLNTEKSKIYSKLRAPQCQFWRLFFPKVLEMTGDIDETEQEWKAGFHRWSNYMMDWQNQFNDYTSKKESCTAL

Cholinesterase [27] = biological target: T1, Cholinesterase; assay: Binding affinity to BChE (unknown origin) in PBS assessed as maximum emission wavelength at 710 nm by fluorescence spectra analysis
[28] = Stability of compound at pH 12 measured within 3 mins by microplate reader analysis; type: physicochemical; details: buffer, pH 12, 0.05 h
PC-12 [29] = assay: Binding affinity to BChE in rat PC-12 cells assessed as increase in fluorescence intensity at 10 uM incubated for 24 hrs by fluorescence based confocal laser scanning microscopic analysis; type: cell-based
Cholinesterase [30] = biological target: T1, Cholinesterase; assay: Binding affinity to BChE (unknown origin) in PBS assessed as cyan coloured appearance of compound by UV/vis absorption analysis
SH-SY5Y [31] = assay: Neuroprotective activity against amyloid-beta (1 to 42)-induced human SH-SY5Y cells assessed as increase in ACh level in cell lysate at 10 to 20 uM incubated for 24 hrs by ELISA; type: functional, cell-based; details: dose 10-20 µM
SH-SY5Y [32] = assay: Neuroprotective activity against amyloid-beta (1 to 42)-induced human SH-SY5Y cells assessed as decrease in amyloid beta (1 to 42) level in culture medium at 10 to 20 uM incubated for 24 hrs by ELISA; type: functional, cell-based; details: dose 10-20 µM
Homo sapiens [33] = organism: Homo sapiens; assay: Binding affinity to ALP (unknown origin) by fluorescence analysis
SH-SY5Y [34] = assay: Neuroprotective activity against amyloid-beta (1 to 42)-induced human SH-SY5Y cells assessed as decrease in amyloid beta (1 to 42) level in cell lysate at 10 to 20 uM incubated for 24 hrs by ELISA; type: functional, cell-based; details: dose 10-20 µM
Cholinesterase [35] = biological target: T1, Cholinesterase; assay: Stability of compound assessed as BChE(unknown origin)-mediated compound hydrolysis at 10 uM by fluorescence based analysis; type: ADME
[36] = Permeability of compound incubated for 18 hrs by PAMPA-BBB based UV plate spectroscopic reader analysis; type: ADME; details: read-out: permeability
Acetylcholinesterase [37] = biological target: T2, Acetylcholinesterase (Homo sapiens, UniProt P22303); assay: Binding affinity to AChE (unknown origin) by fluorescence analysis
T2 sequence (P22303 whole entry): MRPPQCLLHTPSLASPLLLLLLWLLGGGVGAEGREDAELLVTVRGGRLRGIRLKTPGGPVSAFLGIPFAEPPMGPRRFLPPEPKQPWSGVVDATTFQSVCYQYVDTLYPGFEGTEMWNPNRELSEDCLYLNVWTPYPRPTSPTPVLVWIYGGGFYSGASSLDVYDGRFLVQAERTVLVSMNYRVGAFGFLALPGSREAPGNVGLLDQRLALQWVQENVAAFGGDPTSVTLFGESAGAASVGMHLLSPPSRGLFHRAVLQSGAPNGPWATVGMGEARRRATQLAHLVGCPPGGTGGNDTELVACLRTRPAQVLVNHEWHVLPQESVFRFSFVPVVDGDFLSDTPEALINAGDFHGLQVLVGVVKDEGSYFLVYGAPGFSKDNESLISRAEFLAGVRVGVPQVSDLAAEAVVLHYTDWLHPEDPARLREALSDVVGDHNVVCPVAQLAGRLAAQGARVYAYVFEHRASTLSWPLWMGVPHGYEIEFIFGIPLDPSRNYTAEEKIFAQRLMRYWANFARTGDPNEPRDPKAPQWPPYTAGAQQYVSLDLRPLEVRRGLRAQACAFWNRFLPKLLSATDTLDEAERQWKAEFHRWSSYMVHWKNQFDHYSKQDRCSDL

Mus musculus [38] = assay: Antialzheimer activity in APP/PS1 transgenic AD mouse model assessed as improvement in NC scores administered intravenously once every 2 days for 10 times and measured on day 27 by Nest construction test; type: functional, organism-based; details: route iv, time 27.0 day
Cholinesterase [39] = biological target: T1, Cholinesterase; assay: Binding affinity to BChE (unknown origin) assessed as enzyme mediated compound hydrolysis measured after 1 min by HPLC analysis relative to control; set-up: scale not given: the % may be the effect or the level left
Mus musculus [40] = assay: Antialzheimer activity in APP/PS1 transgenic AD mouse model assessed as increase in ACh level administered intravenously once every 2 days for 10 times and measured on day 30 by ELISA; type: functional, organism-based; details: route iv, time 30.0 day
[41] = Drug uptake in HEK293T cells transfected with BChE siRNA assessed as increase in fluorescence intensity by fluorescence based confocal laser scanning microscopic analysis; type: ADME, cell-based; details: human, hek-293t
Mus musculus [42] = assay: Antialzheimer activity in APP/PS1 transgenic AD mouse model assessed as improvement in learning administered intravenously once every 2 days for 10 times followed by morris water maze training from day 21 to 25 and measured on day 26 by Morris water maze test; type: functional, organism-based; details: route iv, time 26.0 day
[43] = Drug accumulation in brain of APP/PS1 transgenic AD-mouse model at 100 uM, iv measured after 24 hrs […] by fluorescence imaging analysis; type: ADME, organism-based; details: in vivo
Acetylcholinesterase [44] = biological target: T2, Acetylcholinesterase; assay: Stability of compound assessed as human serum AChE-mediated compound hydrolysis by fluorescence based analysis; type: ADME
Cholinesterase [45] = biological target: Cholinesterase (Equus caballus, UniProt P81908); assay: Stability of compound assessed as horse serum BChE-mediated compound hydrolysis by fluorescence based analysis; type: ADME
Chain of Cholinesterase (Equus caballus, UniProt P81908) (P81908 whole entry): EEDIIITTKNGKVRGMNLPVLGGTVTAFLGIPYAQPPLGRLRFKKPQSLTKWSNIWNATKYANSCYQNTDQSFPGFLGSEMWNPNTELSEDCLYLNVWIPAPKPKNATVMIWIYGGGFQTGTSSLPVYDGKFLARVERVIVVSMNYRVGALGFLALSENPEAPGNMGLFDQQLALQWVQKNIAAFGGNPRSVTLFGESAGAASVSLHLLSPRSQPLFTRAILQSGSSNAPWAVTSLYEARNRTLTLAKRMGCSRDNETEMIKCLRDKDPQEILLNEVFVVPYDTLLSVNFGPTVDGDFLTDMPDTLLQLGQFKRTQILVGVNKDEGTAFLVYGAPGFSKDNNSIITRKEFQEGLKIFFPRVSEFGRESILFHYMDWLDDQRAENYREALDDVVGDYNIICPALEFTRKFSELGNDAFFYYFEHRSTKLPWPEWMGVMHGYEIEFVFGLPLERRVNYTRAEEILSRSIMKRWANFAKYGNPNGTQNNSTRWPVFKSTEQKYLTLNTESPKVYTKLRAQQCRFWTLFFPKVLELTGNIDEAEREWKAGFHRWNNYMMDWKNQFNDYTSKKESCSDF

T1 sequence (P06276 whole entry): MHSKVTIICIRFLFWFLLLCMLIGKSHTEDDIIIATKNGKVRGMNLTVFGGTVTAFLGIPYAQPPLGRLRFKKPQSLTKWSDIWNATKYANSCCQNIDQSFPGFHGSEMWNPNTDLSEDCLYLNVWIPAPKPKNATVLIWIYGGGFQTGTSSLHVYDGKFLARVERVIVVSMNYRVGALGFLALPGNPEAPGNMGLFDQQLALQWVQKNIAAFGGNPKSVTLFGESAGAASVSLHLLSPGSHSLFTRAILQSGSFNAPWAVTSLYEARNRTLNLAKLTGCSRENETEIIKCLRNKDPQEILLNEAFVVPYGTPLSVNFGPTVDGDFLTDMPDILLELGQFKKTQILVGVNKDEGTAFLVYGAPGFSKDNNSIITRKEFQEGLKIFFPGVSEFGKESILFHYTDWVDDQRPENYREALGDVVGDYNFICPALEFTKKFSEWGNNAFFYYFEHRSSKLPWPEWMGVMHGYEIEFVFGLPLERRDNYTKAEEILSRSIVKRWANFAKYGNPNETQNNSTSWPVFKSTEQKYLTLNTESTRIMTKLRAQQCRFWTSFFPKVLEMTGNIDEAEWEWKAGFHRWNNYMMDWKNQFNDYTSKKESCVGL

SMILES: C#CCCC[N+]1=C(/C=C/C2=C3Oc4cc(OC(=O)C5CC5)ccc4C=C3CCC2)C(C)(C)c2ccccc21.[I-]
- Activity (Cholinesterase [1]): 9.07 µM
- Activity (PC-12 [2]): Dose-Dependent Effect
- fold change (FC) (Cholinesterase [3]): 21
- Activity (Cholinesterase [4]): 2.08 µM/min
- Activity (SH-SY5Y [5]): inactive
- Stability [6]: Stable
- Drug uptake [7]: Active
- Activity (Cholinesterase [8]): > 90%
- Stability [9]: Unstable
- Activity (PC-12 [10]): Active
- IC50 (Cholinesterase [11]): > 100000 nM
- Activity (Cholinesterase [12]): Active
- Selectivity ratio [13]: 31.4
- Activity (Cholinesterase [14]): Active
- Activity (Cholinesterase [15]): Active
- Activity (Homo sapiens [16]): inactive
- Activity (SH-SY5Y [17]): inactive
- Activity (Cholinesterase [18]): Active
- Activity (Homo sapiens [19]): inactive
- Activity (Mus musculus [20]): inactive
- Activity [21]: Non-Toxic
- Activity [22]: Toxic
- Activity (Mus musculus [23]): inactive
- Stability [24]: Stable
- Activity (Mus musculus [25]): inactive
- Activity [26]: Active
- Activity (Cholinesterase [27]): Active
- Stability [28]: Unstable
- Activity (PC-12 [29]): Active
- Activity (Cholinesterase [30]): Active
- Activity (SH-SY5Y [31]): inactive
- Activity (SH-SY5Y [32]): inactive
- Activity (Homo sapiens [33]): inactive
- Activity (SH-SY5Y [34]): inactive
- Stability (Cholinesterase [35]): Stable
- Papp at 18 h [36]: 5.97 ×10⁻⁶ cm/s
- Activity (Acetylcholinesterase [37]): inactive
- Activity (Mus musculus [38]): inactive
- Activity (Cholinesterase [39]): 50%
- Activity (Mus musculus [40]): inactive
- Drug uptake [41]: Not Active
- Activity (Mus musculus [42]): inactive
- Drug uptake [43]: Not Active

SMILES: Nc1c2c(nc3ccccc13)CCCC2 [TACRINE]
- Activity [22]: Non-Toxic

SMILES: CCN(CC)Cc1ccccc1CNC(=O)c1cccc(NC(=O)c2cccc(C(=O)O)c2)c1
- IC50 (Cholinesterase [11]): 1.23 nM

SMILES: CCN(CC)Cc1ccccc1CNC(=O)c1cccc(NC(=O)c2ccc(F)cc2)c1
- Activity [22]: Non-Toxic

SMILES: C#CCCC[N+]1=C(/C=C/C2=C3Oc4cc(OC(C)=O)ccc4C=C3CCC2)C(C)(C)c2ccccc21.[I-]
- Stability (Acetylcholinesterase [44]): Unstable
- Stability (Cholinesterase [45]): Unstable
